Results published in USRE48461E1, “Modulation of androgen receptor expression” (Ionis Pharmaceuticals, Inc., priority 2012, dated 2021).
Oligonucleotides are written 5' to 3', each unit as a sugar letter and its base; * is a phosphorothioate linkage, no mark a phosphodiester; rarer units and linkages stand in square brackets, end groups in braces. Plain capitals give the bases only. e = 2'-O-(2-methoxyethyl) (MOE); k = constrained ethyl (cEt); [5mC] = 5-methylcytosine; d = 2'-deoxy (DNA)

Assays:
AR mRNA [1] = test: Dose-dependent antisense inhibition of human AR in HuVEC cells (electroporation, qRT-PCR RTS3559, IC50); type: cell-based; conditions: HuVEC, ~16 h
Method: (§1) After a treatment period of approximately 16 hours, RNA was isolated from the cells and AR mRNA levels were measured by quantitative real-time PCR. Human AR primer probe set RTS3559 was used to measure mRNA levels. AR mRNA levels were adjusted according to total RNA content, as measured by RIBOGREEN®. […] The antisense oligonucleotides were tested in a series of experiments that had similar culture conditions.
as §1, §1, §1, §1
(§2) After a treatment period of approximately 16 hours, RNA was isolated from the cells and AR mRNA levels were measured by quantitative real-time PCR. Human AR primer probe set RTS3559 was used to measure mRNA levels. AR mRNA levels were adjusted according to total RNA content, as measured by RIBOGREEN®.
as §2

AR mRNA [2] = test: Antisense inhibition of human AR in HuVEC cells, single concentration (electroporation, qRT-PCR RTS3559); type: cell-based; conditions: ~24 h
Method: Antisense oligonucleotides were designed targeting an AR nucleic acid and were tested for their effects on AR mRNA in vitro. The antisense oligonucleotides were tested in a series of experiments that had similar culture conditions. […] Human primer probe set RTS3559 (forward sequence [NT], designated herein as SEQ ID NO: 9; reverse sequence [NT], designated herein as SEQ ID NO: 10; probe sequence [NT], designated herein as SEQ ID NO: 11) was used to measure mRNA levels. AR mRNA levels were adjusted according to total RNA content, as measured by RIBOGREEN®. […] A total of 155 oligonucleotides were tested. Additional antisense oligonucleotides were designed targeting an AR nucleic acid and were tested for their effects on AR mRNA in vitro. […] Human primer probe set RTS3559 was used to measure mRNA levels. AR mRNA levels were adjusted according to total RNA content, as measured by RIBOGREEN®. […] A total of 82 oligonucleotides were tested. Additional antisense oligonucleotides were designed targeting an AR nucleic acid and were tested for their effects on AR mRNA in vitro. […] Human primer probe set RTS3559 was used to measure mRNA levels. AR mRNA levels were adjusted according to total RNA content, as measured by RIBOGREEN®. […] A total of 40 oligonucleotides were tested. Additional antisense oligonucleotides were designed targeting an AR nucleic acid and were tested for their effects on AR mRNA in vitro. […] Human primer probe set RTS3559 was used to measure mRNA levels. AR mRNA levels were adjusted according to total RNA content, as measured by RIBOGREEN®. […] A total of 75 oligonucleotides were tested. Additional antisense oligonucleotides were designed targeting an AR nucleic acid and were tested for their effects on AR mRNA in vitro. […] Human primer probe set RTS3559 was used to measure mRNA levels. AR mRNA levels were adjusted according to total RNA content, as measured by RIBOGREEN®. […] A total of 616 oligonucleotides were tested. Additional antisense oligonucleotides were designed targeting an AR nucleic acid and were tested for their effects on AR mRNA in vitro. […] Human primer probe set RTS3559 was used to measure mRNA levels. AR mRNA levels were adjusted according to total RNA content, as measured by RIBOGREEN®. […] A total of 385 oligonucleotides were tested.

[3] = 500 nM ASO, electroporation, Table 2

Row | Substance | percent inhibition of AR (AR mRNA [1]; 31.25 nM, Table 6) [%] | percent inhibition of AR (AR mRNA [1]; 31.25 nM, Table 8) [%] | percent inhibition of AR (AR mRNA [1]; 62.5 nM, Table 6) [%] | percent inhibition of AR (AR mRNA [1]; 62.5 nM, Table 8) [%] | percent inhibition of AR (AR mRNA [1]; 125.0 nM, Table 6) [%] | percent inhibition of AR (AR mRNA [1]; 125.0 nM, Table 8) [%] | percent inhibition of AR (AR mRNA [1]; 500.0 nM, Table 6) [%] | percent inhibition of AR (AR mRNA [1]; 500.0 nM, Table 8) [%] | percent inhibition of AR (AR mRNA [1]; 1000.0 nM, Table 6) [%] | percent inhibition of AR (AR mRNA [1]; 1000.0 nM, Table 8) [%] | IC50 (AR mRNA [1]; Table 6) [nM] | IC50 (AR mRNA [1]; Table 8) [nM] | % inhibition (AR mRNA [2]; 500 nM ASO, Table 5) [%] | percent inhibition of AR (AR mRNA [1]; 31.25 nM, Table 14) [%] | percent inhibition of AR (AR mRNA [1]; 62.5 nM, Table 14) [%] | percent inhibition of AR (AR mRNA [1]; 125.0 nM, Table 14) [%] | percent inhibition of AR (AR mRNA [1]; 500.0 nM, Table 14) [%] | percent inhibition of AR (AR mRNA [1]; 1000.0 nM, Table 14) [%] | IC50 (AR mRNA [1]; Table 14) [nM] | % inhibition (AR mRNA [2]; 1,000 nM ASO, Table 13) [%] | other results
1 | 549457 (kT*kT*kG*dA*dT*dT*dT*dA*dA*dT*dG*dG*dT*kT*kG*k[5mC]) [compound 549457] | 40 | 34 | 57 | 44 | 78 | 75 | 96 | 93 | 96 | 96 | 30 | 60 | 98 |  |  |  |  |  |  |  | percent inhibition of AR (AR mRNA [1]; 55.6 nM, Table 4): 70%; percent inhibition of AR (AR mRNA [1]; 166.7 nM, Table 4): 95%; percent inhibition of AR (AR mRNA [1]; 500.0 nM, Table 4): 99%; percent inhibition of AR (AR mRNA [1]; 1500.0 nM, Table 4): 99%; IC50 (AR mRNA [1]; Table 4): 18 nM; % inhibition (AR mRNA [2]; 250 nM ASO, Table 7): 67%; % inhibition (AR mRNA [2]; [3]): 98%
2 | 549459 (kA*kT*kG*dG*dT*dT*dG*dA*dT*dT*dT*dA*dA*kT*kG*kG) [compound 549459] | 16 |  | 23 |  | 50 |  | 85 |  | 92 |  | 100 |  | 92 |  |  |  |  |  |  |  | percent inhibition of AR (AR mRNA [1]; 55.6 nM, Table 4): 61%; percent inhibition of AR (AR mRNA [1]; 166.7 nM, Table 4): 90%; percent inhibition of AR (AR mRNA [1]; 500.0 nM, Table 4): 94%; percent inhibition of AR (AR mRNA [1]; 1500.0 nM, Table 4): 97%; IC50 (AR mRNA [1]; Table 4): 18 nM; % inhibition (AR mRNA [2]; [3]): 96%
3 | 560071 (eT*eG*eG*eT*eT*dG*dA*dT*dT*dT*dA*dA*dT*dG*dG*eT*eT*eG*e[5mC]*eA) [compound 560071] | 7 |  | 0 |  | 19 |  | 57 |  | 76 |  | 400 |  | 73 |  |  |  |  |  |  |  | 
4 | 560098 (kT*kG*kA*dT*dT*dT*dA*dA*dT*dG*dG*dT*dT*kG*k[5mC]*kA; further chemistry not given here) [compound 560098] | 20 | 30 | 41 | 54 | 64 | 65 | 94 | 89 | 94 | 97 | 100 | 70 | 99 |  |  |  |  |  |  |  | % inhibition (AR mRNA [2]; 250 nM ASO, Table 7): 69%
5 | 560099 (kG*kG*kT*dT*dG*dA*dT*dT*dT*dA*dA*dT*dG*kG*kT*kT) [compound 560099] | 13 |  | 29 |  | 58 |  | 89 |  | 94 |  | 100 |  | 95 |  |  |  |  |  |  |  | 
6 | 560100 (antisense kT*kG*kG*dT*dT*dG*dA*dT*dT*dT*dA*dA*dT*kG*kG*kT) [compound 560100] | 16 |  | 24 |  | 53 |  | 81 |  | 93 |  | 100 |  | 91 |  |  |  |  |  |  |  | 
7 | 560132 (antisense kG*kT*kT*dG*dA*dT*dT*dT*dA*dA*dT*dG*kG*kT*kT*eG) [compound 560132] |  |  |  |  |  |  |  |  |  |  |  |  |  | 8 | 19 | 21 | 65 | 85 | 252 | 58 | 
8 | 560133 (antisense kA*kT*kG*dG*dT*dT*dG*dA*dT*dT*dT*dA*kA*kT*kG*eG) [compound 560133] |  |  |  |  |  |  |  |  |  |  |  |  |  | 17 | 15 | 24 | 58 | 79 | 336 | 53 | 
9 | 560137 (antisense TTGATTTAATGGTTGC; all C 5-methyl, all phosphorothioate, sugars by position not given here; further chemistry not fully specified) [compound 560137] | 27 | 35 | 49 | 39 | 61 | 64 | 91 | 89 | 96 | 94 | 100 | 80 | 95 |  |  |  |  |  |  |  | % inhibition (AR mRNA [2]; 250 nM ASO, Table 7): 66%
10 | 569215 (antisense kT*kG*kG*dT*dT*dG*dA*dT*dT*dT*dA*dA*kT*kG*kG*eT) [compound 569215] |  |  |  |  |  |  |  |  |  |  |  |  |  | 12 | 2 | 26 | 71 | 90 | 234 | 59 | 
11 | 569220 (antisense eA*kT*kG*kG*dT*dT*dG*dA*dT*dT*dT*dA*kA*kT*kG*eG) [compound 569220] |  |  |  |  |  |  |  |  |  |  |  |  |  | 11 | 29 | 34 | 59 | 78 | 275 | 58 | 
12 | 569222 (antisense eT*eT*kG*kA*kT*dT*dT*dA*dA*dT*dG*dG*dT*kT*kG*k[5mC]) [compound 569222] |  | 36 |  | 48 |  | 67 |  | 91 |  | 98 |  | 60 |  |  |  |  |  |  |  |  | % inhibition (AR mRNA [2]; 250 nM ASO, Table 7): 74%
13 | 569223 (antisense eG*eT*kT*kG*kA*dT*dT*dT*dA*dA*dT*dG*dG*kT*kT*kG) [compound 569223] |  |  |  |  |  |  |  |  |  |  |  |  |  | 21 | 20 | 30 | 73 | 87 | 191 | 59 | 
14 | 569228 (antisense eT*eT*kG*kA*kT*dT*dT*dA*dA*dT*dG*dG*kT*kT*kG*e[5mC]) [compound 569228] |  | 26 |  | 43 |  | 62 |  | 88 |  | 92 |  | 90 |  |  |  |  |  |  |  |  | percent inhibition of AR (AR mRNA [1]; 62.5 nM, Table 10): 29%; percent inhibition of AR (AR mRNA [1]; 125.0 nM, Table 10): 44%; percent inhibition of AR (AR mRNA [1]; 500.0 nM, Table 10): 77%; percent inhibition of AR (AR mRNA [1]; 1000.0 nM, Table 10): 87%; IC50 (AR mRNA [1]; Table 10): 158 nM; % inhibition (AR mRNA [2]; 250 nM ASO, Table 7): 67%
15 | 569229 (antisense eG*eT*kT*kG*kA*dT*dT*dT*dA*dA*dT*dG*kG*kT*kT*eG) [compound 569229] |  |  |  |  |  |  |  |  |  |  |  |  |  | 16 | 14 | 36 | 74 | 84 | 220 | 57 | 
